The experiment relates to T1, azoreductase.
T1 construct: native enzyme purified from strain S1 cells (sonication, ammonium sulphate, Sephadex G-100); 29 kDa by SDS-PAGE
The experiment can be described thus: dye decolourisation at […] nm, Lineweaver-Burk. It counts as biochemical, Staphylococcus aureus.

In the case of `NC(=O)C1=CN([C@@H]2O[C@H](COP(=O)(O)OP(=O)(O)OC[C@H]3O[C@@H](n4cnc5c(N)ncnc54)[C@H](O)[C@@H]3O)[C@@H](O)[C@H]2O)C=CC1` [NADH], the Km (0.5 mM RR241, NADH varied) was determined as 1020 µM. For the molecule `O=S(=O)(O)OCCS(=O)(=O)c1ccc(Nc2nc(Cl)nc(Nc3cc(S(=O)(=O)O)cc4cc(S(=O)(=O)O)c(N=Nc5ccc6c(S(=O)(=O)O)cccc6c5S(=O)(=O)O)c(O)c34)n2)cc1` [RR241, reactive red 241], the Km (constant NADH 1 mM (text; legend of Fig 4a says absence of NADH)) turned out to be 1540 µM.

By Km is commonly meant the substrate concentration at which the rate is half of its maximum.

The values above are taken from publication PMC5414976, “Reduction of reactive red 241 by oxygen insensitive azoreductase purified from a novel strain Staphylococcus KU898286” (PLoS ONE, 2017).
